Experimental data from ChEMBL document CHEMBL1149460, “Pharmacokinetics and metabolism studies on (3-tert-butyl-7-(5-methylisoxazol-3-yl)-2-(1-methyl-1H-1,2,4-triazol-5-ylmethoxy) pyrazolo[1,5-d][1,2,4]triazine, a functionally selective GABA(A) alpha5 inverse agonist for cognitive dysfunction” (Bioorg Med Chem Lett, 2006).

Columns and labels:
[1] = Efficacy against human GABA alpha-3 receptor expressed in mouse fibroblast L(tk-) cells by whole cell patch clamp method; format: functional
[2] = target: GABA-A receptor; anion channel (Rattus norvegicus) (UniProt O09028+P15431+P18506+P18508+P19969+P20236+P23574+P23576+P28471+P28473+P30191+P62813+P63079+P63138+Q91ZM7+Q9ES14); assay: Receptor occupancy in vivo by displacement of [3H]Ro 15-1788 binding from rat brain GABAA receptor at 3 mg/kg, ip; format: functional, organism-based; set-up: dose 3 mg/kg
[3] = Efficacy against human GABA alpha-2 receptor expressed in mouse fibroblast L(tk-) cells by whole cell patch clamp method; format: functional
[4] = Binding affinity to GABA alpha5 receptor; set-up: species or system Homo sapiens
[5] = target: GABA A receptor alpha-1/beta-1/gamma-2 (Homo sapiens) (UniProt P14867+P18507+P18505); assay: Efficacy against human GABA alpha-1 receptor expressed in mouse fibroblast L(tk-) cells by whole cell patch clamp method; format: functional, cell-based
[6] = Efficacy against human GABA alpha-5 receptor expressed in mouse fibroblast L(tk-) cells by whole cell patch clamp method; format: functional
[7] = Clearance in rat; format: ADME, organism-based; conditions: in vivo
[8] = Oral bioavailability in rhesus; format: ADME, organism-based, Macaca mulatta; conditions: rhesus monkey, in vivo
[9] = Half life in dog; format: ADME, organism-based, Canis lupus familiaris; conditions: in vivo
[10] = Clearance in dog; format: ADME, organism-based, Canis lupus familiaris; conditions: in vivo
[11] = Half life in rhesus; format: ADME, organism-based, Macaca mulatta; conditions: rhesus monkey, in vivo
[12] = Half life in rat; format: ADME, organism-based; conditions: in vivo
[13] = Clearance in rhesus; format: ADME, organism-based, Macaca mulatta; conditions: rhesus monkey, in vivo

SMILES	Efficacy [1] [%]	Activity [2] [%]	Efficacy [3] [%]	Ki [4] [µM]	Efficacy [5] [%]	Efficacy [6] [%]	clearance [7] [mL/min/kg]	bioavailability [8] [%]	half-life [9] [min]	clearance [10] [mL/min/kg]	half-life [11] [min]	half-life [12] [min]	clearance [13] [mL/min/kg]
Cn1ncnc1COc1nn2c(-c3cc(CO)on3)nncc2c1C(C)(C)CO	-39	8	-31	0.021	-45	-44							
Cc1cc(-c2nncc3c(C(C)(C)CO)c(OCc4ncnn4C)nn23)no1	-32	21	-23	0.0094	-41	-40							
Cc1cc(-c2nnc(O)c3c(C(C)(C)C)c(OCc4ncnn4C)nn23)no1	-8		0	0.7	1	-47							
Cn1ncnc1COc1nn2c(-c3cc(CO)on3)nnc(O)c2c1C(C)(C)C				0.37									
Cc1cc(-c2nncc3c(C(C)(C)C)c(OCc4ncnn4C)nn23)no1	-9	> 95	6	0.0014	-16	-55	27	< 2	30	39	18	30	33
Cn1ncnc1COc1nn2c(-c3cc(CO)on3)nncc2c1C(C)(C)C	-15	12	-1	0.0011	-11	-52							
Cc1cc(-c2nnc(O)c3c(C(C)(C)CO)c(OCc4ncnn4C)nn23)no1				> 0.666									
